Experimental data from ChEMBL document CHEMBL2163248, “Classification of inhibitors of hepatic organic anion transporting polypeptides (OATPs): influence of protein expression on drug-drug interactions” (J Med Chem, 2012).

How the values were obtained:
[1] = molecular target: T1, Solute carrier organic anion transporter family member 2B1 (Homo sapiens, UniProt O94956); experiment: Inhibition of human liver OATP2B1 expressed in HEK293 Flp-In cells assessed as reduction in [3H]E3S uptake at 20 uM incubated for 5 mins by scintillation counting; conditions: hek293, 5 min
T1 sequence (O94956 whole entry): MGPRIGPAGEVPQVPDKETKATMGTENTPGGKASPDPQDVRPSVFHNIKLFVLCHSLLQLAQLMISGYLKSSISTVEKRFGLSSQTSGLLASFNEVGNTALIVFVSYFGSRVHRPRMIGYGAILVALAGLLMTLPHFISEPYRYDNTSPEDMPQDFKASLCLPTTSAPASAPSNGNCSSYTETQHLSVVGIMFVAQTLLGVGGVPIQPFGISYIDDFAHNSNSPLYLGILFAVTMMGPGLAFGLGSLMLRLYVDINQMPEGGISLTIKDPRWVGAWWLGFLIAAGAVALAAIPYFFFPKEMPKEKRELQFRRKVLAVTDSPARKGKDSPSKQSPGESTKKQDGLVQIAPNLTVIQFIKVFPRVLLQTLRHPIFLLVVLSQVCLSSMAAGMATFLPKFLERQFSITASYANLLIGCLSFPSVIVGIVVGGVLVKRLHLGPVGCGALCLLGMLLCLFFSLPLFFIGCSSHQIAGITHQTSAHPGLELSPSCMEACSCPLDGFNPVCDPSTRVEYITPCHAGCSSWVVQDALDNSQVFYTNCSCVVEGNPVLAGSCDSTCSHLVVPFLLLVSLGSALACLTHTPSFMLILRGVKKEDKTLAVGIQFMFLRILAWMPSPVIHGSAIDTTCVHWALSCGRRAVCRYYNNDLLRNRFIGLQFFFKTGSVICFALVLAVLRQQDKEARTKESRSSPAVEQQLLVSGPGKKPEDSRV

[2] = molecular target: T2, Solute carrier organic anion transporter family member 1B3 (Homo sapiens, UniProt Q9NPD5); experiment: Inhibition of human liver OATP1B3 expressed in HEK293 Flp-In cells assessed as reduction in [3H]E17-betaG uptake at 20 uM incubated for 5 mins by scintillation counting; conditions: hek293, 5 min
T2 sequence (Q9NPD5 whole entry): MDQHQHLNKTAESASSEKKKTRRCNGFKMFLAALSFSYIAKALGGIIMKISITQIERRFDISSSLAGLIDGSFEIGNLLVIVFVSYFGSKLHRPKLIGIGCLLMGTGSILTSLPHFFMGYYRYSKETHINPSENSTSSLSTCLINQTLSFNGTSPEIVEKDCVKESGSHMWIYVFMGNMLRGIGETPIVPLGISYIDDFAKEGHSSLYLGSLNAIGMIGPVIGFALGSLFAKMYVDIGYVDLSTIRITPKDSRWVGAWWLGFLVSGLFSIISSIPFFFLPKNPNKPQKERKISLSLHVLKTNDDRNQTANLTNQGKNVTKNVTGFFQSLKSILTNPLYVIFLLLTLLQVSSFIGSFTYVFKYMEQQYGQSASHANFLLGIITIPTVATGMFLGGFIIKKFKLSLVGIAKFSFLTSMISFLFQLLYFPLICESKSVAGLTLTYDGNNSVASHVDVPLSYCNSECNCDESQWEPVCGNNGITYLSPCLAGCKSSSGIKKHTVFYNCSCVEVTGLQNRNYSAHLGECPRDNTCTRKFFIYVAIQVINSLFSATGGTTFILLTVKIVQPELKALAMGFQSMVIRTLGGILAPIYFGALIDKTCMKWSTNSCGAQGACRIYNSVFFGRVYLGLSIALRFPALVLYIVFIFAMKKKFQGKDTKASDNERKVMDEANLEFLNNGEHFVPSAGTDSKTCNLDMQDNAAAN

[3] = molecular target: T3, Solute carrier organic anion transporter family member 1B1 (Homo sapiens, UniProt Q9Y6L6); experiment: Inhibition of human liver OATP1B1 expressed in HEK293 Flp-In cells assessed as reduction in E17-betaG uptake at 20 uM by scintillation counting; conditions: hek293, 20 µM
T3 sequence (Q9Y6L6 whole entry): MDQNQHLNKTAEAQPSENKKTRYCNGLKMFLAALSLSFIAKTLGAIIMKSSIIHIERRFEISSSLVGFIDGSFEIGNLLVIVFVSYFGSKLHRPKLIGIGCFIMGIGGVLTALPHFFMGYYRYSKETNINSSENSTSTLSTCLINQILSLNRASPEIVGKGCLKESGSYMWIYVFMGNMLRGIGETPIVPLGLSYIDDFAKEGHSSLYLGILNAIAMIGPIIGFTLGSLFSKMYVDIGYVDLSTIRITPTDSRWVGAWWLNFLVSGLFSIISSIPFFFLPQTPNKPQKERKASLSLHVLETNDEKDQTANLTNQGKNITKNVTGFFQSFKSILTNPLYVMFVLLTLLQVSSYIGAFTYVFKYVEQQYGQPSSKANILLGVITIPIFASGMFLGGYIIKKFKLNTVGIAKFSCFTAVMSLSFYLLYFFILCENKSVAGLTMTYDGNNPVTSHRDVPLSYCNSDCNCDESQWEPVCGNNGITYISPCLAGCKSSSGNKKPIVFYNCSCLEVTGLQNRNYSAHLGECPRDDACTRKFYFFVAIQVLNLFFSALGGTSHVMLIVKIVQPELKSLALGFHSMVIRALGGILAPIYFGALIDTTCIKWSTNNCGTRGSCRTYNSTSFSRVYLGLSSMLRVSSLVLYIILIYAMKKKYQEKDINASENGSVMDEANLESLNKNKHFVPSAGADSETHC

Molecule	INH [1] [%]	INH [2] [%]	INH [3] [%]
CCOc1cc(CC(=O)N[C@@H](CC(C)C)c2ccccc2N2CCCCC2)ccc1C(=O)O [REPAGLINIDE]	42.2	83.2	88.4
CO[C@H]1/C=C/O[C@@]2(C)Oc3c(C)c(O)c4c(O)c(c(/C=N/N5CCN(C)CC5)c(O)c4c3C2=O)NC(=O)/C(C)=C\C=C\[C@H](C)[C@H](O)[C@@H](C)[C@@H](O)[C@@H](C)[C@H](OC(C)=O)[C@@H]1C [RIFAMPIN]	21.2	101.7	88.3
CO[C@H]1/C=C/O[C@@]2(C)Oc3c(C)c(O)c4c(O)c(cc(O)c4c3C2=O)NC(=O)/C(C)=C\C=C\[C@H](C)[C@H](O)[C@@H](C)[C@@H](O)[C@@H](C)[C@H](OC(C)=O)[C@@H]1C [RIFAMYCIN]	74.8	101.4	95.4
CN(CCOc1ccc(CC2SC(=O)NC2=O)cc1)c1ccccn1 (centres undefined) [ROSIGLITAZONE]	10	-32.1	79.1
CC(C)c1nc(N(C)S(C)(=O)=O)nc(-c2ccc(F)cc2)c1/C=C/[C@@H](O)C[C@@H](O)CC(=O)O [ROSUVASTATIN]	51.2	55.4	71.4
CC(C)NCC(O)c1ccc(NS(C)(=O)=O)cc1 (centres undefined) [SOTALOL]	19	6.6	46.4
CC(=O)S[C@@H]1CC2=CC(=O)CC[C@]2(C)[C@H]2CC[C@@]3(C)[C@@H](CC[C@@]34CCC(=O)O4)[C@H]12 [SPIRONOLACTONE]	-82	-34.2	88.3
O=C(O)c1cc(/N=N/c2ccc(S(=O)(=O)Nc3ccccn3)cc2)ccc1O [SULFASALAZINE]	92.3	72.1	92.1
O=C1OC(c2ccc(O)c(S(=O)(=O)[O-])c2)(c2ccc(O)c(S(=O)(=O)[O-])c2)c2c(Br)c(Br)c(Br)c(Br)c21.[Na+].[Na+] [SULFOBROMOPHTHALEIN SODIUM]	69.3	74.9	94.1
C[C@H](CCC(=O)NCCS(=O)(=O)O)[C@H]1CC[C@H]2[C@@H]3[C@H](O)C[C@@H]4C[C@H](O)CC[C@]4(C)[C@H]3CC[C@]12C [TAUROCHENODEOXYCHOLATE]	47.2	82.4	89.5
C[C@H](CCC(=O)NCCS(=O)(=O)O)[C@H]1CC[C@H]2[C@@H]3CC[C@@H]4C[C@H](O)CC[C@]4(C)[C@H]3CC[C@]12C [TAUROLITHOCHOLIC ACID]	94.6	89.8	97.8
C[C@H](Cn1cnc2c(N)ncnc21)OCP(=O)(O)O [TENOFOVIR ANHYDROUS]	23.3	33.6	18.4
CC(C)(C)c1ccc(C(O)CCCN2CCC(C(O)(c3ccccc3)c3ccccc3)CC2)cc1 (centres undefined) [TERFENADINE]	3.7	33.3	42.7
CN(C)[C@@H]1C(O)=C(C(N)=O)C(=O)[C@@]2(O)C(O)=C3C(=O)c4c(O)cccc4[C@@](C)(O)[C@H]3C[C@@H]12 [TETRACYCLINE]	51.1	29.5	22.1
CC[N+](CC)(CC)CC [TETRYLAMMONIUM]	6.7	4.9	25.9
Cn1c(=O)c2[nH]cnc2n(C)c1=O.O [THEOPHYLLINE]	-25.5	2.5	0.8
CSc1ccc2c(c1)N(CCC1CCCCN1C)c1ccccc1S2 (centres undefined) [THIORIDAZINE]	21.5	25.2	26.1

Molecule	INH [1] [%]	INH [2] [%]	INH [3] [%]
S=P(N1CC1)(N1CC1)N1CC1 [THIOTEPA]	16.2	0.6	-40.3
Clc1ccccc1CN1CCc2sccc2C1 [TICLOPIDINE]	23	0.2	19.4
CCCCNC(=O)NS(=O)(=O)c1ccc(C)cc1 [TOLBUTAMIDE]	15.5	5.8	9.1
CC[C@@]1(O)C(=O)OCc2c1cc1n(c2=O)Cc2cc3c(CN(C)C)c(O)ccc3nc2-1 [TOPOTECAN]	-39.2	17.3	36.7
Cc1nnc2n1-c1ccc(Cl)cc1C(c1ccccc1Cl)=NC2 [TRIAZOLAM]	-20.5	18.7	45.7
COc1cc(Cc2cnc(N)nc2N)cc(OC)c1OC [TRIMETHOPRIM]	35.1	18.8	24.7
CC(C)C[C@H](NC(=O)[C@@H](O)[C@H](N)Cc1ccccc1)C(=O)O [UBENIMEX]	20.7	31.8	10.9
CC(C)[C@H](N)C(=O)OCCOCn1cnc2c(=O)[nH]c(N)nc21 [VALACYCLOVIR]	-7.3	6.6	8.3
C/C=C/C[C@@H](C)C(=O)[C@H]1C(=O)N[C@@H](C(C)C)C(=O)N(C)CC(=O)N(C)[C@@H](CC(C)C)C(=O)N[C@@H](C(C)C)C(=O)N(C)[C@@H](CC(C)C)C(=O)N[C@@H](C)C(=O)N[C@H](C)C(=O)N(C)[C@@H](CC(C)C)C(=O)N(C)[C@@H](CC(C)C)C(=O)N(C)[C@@H](C(C)C)C(=O)N1C [VALSPODAR]	33.1	93.9	96.3
c1cnc2cc3c(cc2n1)[C@@H]1CNC[C@H]3C1 [VARENICLINE]	27.3	0.8	24.7
CC[C@]1(O)C[C@@H]2CN(CCc3c([nH]c4ccccc34)[C@@](C(=O)OC)(c3cc4c(cc3OC)N(C)[C@H]3[C@@](O)(C(=O)OC)[C@H](OC(C)=O)[C@]5(CC)C=CCN6CC[C@]43[C@@H]65)C2)C1 [VINBLASTINE]	-9.3	54.3	57.6
CC(=O)CC(c1ccccc1)c1c(O)c2ccccc2oc1=O (centres undefined) [WARFARIN]	31.6	-3.2	27.8
Cc1cn([C@H]2C[C@H](N=[N+]=[N-])[C@@H](CO)O2)c(=O)[nH]c1=O [ZIDOVUDINE]	4.7	7.1	9.5
FLUPENTIXOL	9.5	13.5	30.2
IVERMECTIN	39	55.2	64.7
NYSTATIN	23.4	74.9	69.3
